Our source for the refractive index, surface tension liquid-gas and mass density values is the NIST ThermoML archive (doi:10.1016/j.jct.2013.02.020).

Series [1] can be described thus: refractive index (Na D-line) (dimensionless). To be noted: 298.15 K; 100 kPa; Liquid; Standard Abbe refractometry.
For series [2] the following is noted: 298.15 K; for surface tension liquid-gas: Wilhelmy plate method; for mass density: 100 kPa, Liquid, Vibrating tube method.

± gives the expanded uncertainty stated by the source.

On to `c1ccncc1` [pyridine], for which the refractive index in series [1] is on record as 1.5072 ± 0.0006. In series [2], the surface tension liquid-gas came out at 37.5 ± 0.4 mN/m and the mass density is on record as 978.25 ± 2.3 kg/m3.
Consider `CCOS(=O)(=O)[O-].CCn1cc[n+](C)c1` [1-ethyl-3-methylimidazolium ethyl sulfate], for which, in series [1], the refractive index is 1.4771 ± 0.0005. Also, in series [2], the surface tension liquid-gas stood at 48.4 ± 0.2 mN/m and the mass density stood at 1234.53 ± 2.2 kg/m3.
For `CCn1cc[n+](C)c1.CS(=O)(=O)[O-]` [1-ethyl-3-methylimidazolium methanesulfonate], in that order: 1.4962 ± 0.0005, 51.2 ± 0.3 mN/m and 1242.52 ± 2.2 kg/m3.
As for `CC(=O)[O-].CCn1cc[n+](C)c1` [1-ethyl-3-methylimidazolium acetate], in series [1], the refractive index worked out at 1.5012 ± 0.0005. For the same compound, in series [2], the surface tension liquid-gas is listed as 43.5 ± 0.2 mN/m and the mass density was found to be 1097.37 ± 2.2 kg/m3.
The like results for `c1ccsc1` [thiophene] were, in that order, 1.5271 ± 0.0006, 31.7 ± 0.3 mN/m and 1058.44 ± 2.4 kg/m3.
